The values below are quoted from earlier work in US7935665B2, “Non-corrosive cleaning compositions for removing etch residues” (Fujifilm Electronic Materials U.S.A., Inc., priority 2002, dated 2011).

For the series the following is noted: of the acid in the formulation.

For the compound `O=C(O)[C@H](O)[C@@H](O)[C@H](O)[C@H](O)CO` [D-gluconic acid], the pKa1 is reported as 3.86.

For `O=C(O)CC(O)C(=O)O` (racemic) [DL-malic acid], the PKa2 was 5.1 and the pKa1 is on record as 3.48.
